# “And” between values parts separate entries of the source, which are not always exact repeats. Identical values can stand only once. Like-named read-outs stand apart in the source and are kept apart here.
# Experiments:
# [1] = target: T1, human recombinant AChE (hAChE) (Homo sapiens, UniProt P22303); assay: biochemical
# T1 construct: purchased Sigma-Aldrich
# Method: Ellman’s assay was followed to evaluate the anticholinesterasic potency of BCPOs using human recombinant AChE (Sigma-Aldrich). 500 U of hAChE were dissolved in 1 mL of a gelatine solution (1% in water) and diluted with demineralized water to give a stock solution of 5 U/mL. […] All assays were performed in 0.1 M phosphate buffer pH 8.0. The assayed compounds or blank (water) (25 µL) were incubated with the enzyme (20 µL) for 5 min at 37 °C in 765 µL of phosphate buffer prior to start the reaction. Then, 20 µL of DTNB and 20 µL of ATC were added. […] IC50 values were determined with GraphPad Prism 5. Each concentration was measured in triplicate. Data are expressed as mean ± SEM.
# [2] = Oxygen radical absorbance capacity by fluorescence (ORAC-FL); conditions: mean ± SD
# Method: Trolox was used as standard, fluorescein as fluorescent probe and 2,2′-azobis(2-amidinopropane) dihydrochloride (AAPH) as the peroxyl radical source. Ferulic acid was used as a positive control.
# The antioxidant power of BCPOs was determined following the ORAC-FL method using fluorescein as the fluorescent probe. (±)-6-Hydroxy-2,5,7,8-tetramethylchromane-2-carboxylic acid (Trolox), fluorescein (FL) and AAPH were bought from Sigma-Aldrich (Saint Louis, MO, USA). A Varioskan Flash plate reader with built-in injectors (Thermo Scientific, Waltham, MA, USA) was used. The final volume reaction mixture was 200 µL and the reaction was carried out at 37 °C in 75 mM phosphate buffer (pH 7.4). The tested compounds and Trolox standard were dissolved in DMSO to 10 mM and further diluted in phosphate buffer. The final concentrations were 0.1–1 µM for the tested compounds and 1–8 µM for Trolox standard. The blank was composed of 120 µL of FL, 60 µL of AAPH and 20 µL of phosphate buffer (pH = 7.4) and was added in each assay. The antioxidant (20 µL) and fluorescein (FL, 120 µL, final concentration of 70 nM) were incubated in a black 96-well microplate Nunc, purchazed from Thermo Fisher Scientific, Ecublens, Switzerland) for 15 min at 37 °C. Then, AAPH, 60 µL, final concentration of 12 mM) solution was added quickly using the built-in injector. […] The microplate was automatically shaken prior to each reading. All the experiments were made in triplicate and at least three different assays were performed for each sample.
# Using MS Excel software, regression equations were extrapolated by plotting the net AUC against the antioxidant concentration. The ORAC values were then obtained by dividing the slope of the latter curve between the slope of the Trolox curve obtained in the same assay. Final ORAC values were expressed as Trolox equivalents. Data are expressed as mean ± SD.
# [3] = in vitro; conditions: for Papp at 100 µM: PAMPA, pH 7.4; for BBB Penetration Estimation CNS (+/−): PAMPA-BBB class
# Method: Penetration across the BBB is an essential property for compounds targeting the CNS. […] The filter membrane of the donor plate was coated with PBL (Polar Brain Lipid, Avanti, AL, USA) in dodecane (4 µL of 20 mg/mL PBL in dodecane) and the acceptor well was filled with 300 µL of PBS pH 7.4 buffer ([…]). Tested compounds were dissolved first in DMSO and that diluted with PBS pH 7.4 to reach the final concentration 100 µM in the donor well. […] 300 µL of the donor solution was added to the donor wells ([…]) and the donor filter plate was carefully put on the acceptor plate so that coated membrane was “in touch” with both donor solution and acceptor buffer. Test compound diffused from the donor well through the lipid membrane (Area = 0.28 cm^2) to the acceptor well. The concentration of the drug in both donor and the acceptor wells was assessed after 3, 4, 5 and 6 h of incubation in quadruplicate using the UV plate reader Synergy HT (Biotek, Winooski, VT, USA) at the maximum absorption wavelength of each compound.
# [4] = target: T2, Recombinant human Aβ1–42 peptide (Homo sapiens, UniProt P05067); assay: Inhibition of Aβ1-42 aggregation (Thioflavin-T fluorometric assay); type: biochemical; conditions: for inhibition at 10 µM: 10 µM compound and 1.5 µM Aβ1-42, mean ± standard deviation of two independent experiments
# T2 construct: Recombinant human 1,1,1,3,3,3-hexafluoro-2-propanol pretreated Aβ1–42 peptide; purchased Merck Millipore
# Method: 2. Thioflavin-T (ThT) Fluorometric Assay
# Recombinant human 1,1,1,3,3,3-hexafluoro-2-propanol pretreated Aβ1–42 peptide (Merck Millipore, Darmstadt, Germany) was dissolved in DMSO to give 75 µM stock solution. The stock solution was further diluted in HEPES buffered solu tion (150 mM HEPES, pH 7.4, 150 mM NaCl), to 7.5 µM. Aβ1–42 solution was then added to the test compounds in black-walled 96-well plate, and diluted with ThT solution (final concentration of ThT was 10 µM). Final mixture contained 1.5 µM Aβ1–42, 10 µM of test compounds, and 3% DMSO. ThT fluorescence was measured every 5 min (λex = 440 nm, λem = 490 nm), with the medium continuously shaking between measurements using a 96-well microplate reader (Synergy™ H4, BioTek Instruments, Inc., Winooski, VT, USA). The fluorescence intensities at the plateau reached after 24 h in the absence and presence of the test compound were averaged, and the average fluorescence of the corresponding wells at t = 15 min was subtracted. The Aβ1–42 aggregation inhibitory potency is expressed as the percentage inhibition (% inh = (1 − Fi/F0) × 100%), where Fi is the increase in fluorescence of Aβ1–42 treated with the test compound, and F0 is the increase in fluorescence of Aβ1–42 alone.
# 1. LeVine, H. Thioflavine T interaction with synthetic Alzheimer’s disease beta-amyloid peptides:
# Detection of amyloid aggregation in solution. Protein Sci. Publ. Protein Soc. 1993, 2, 404–410.
# T1 sequence (P22303 32-614): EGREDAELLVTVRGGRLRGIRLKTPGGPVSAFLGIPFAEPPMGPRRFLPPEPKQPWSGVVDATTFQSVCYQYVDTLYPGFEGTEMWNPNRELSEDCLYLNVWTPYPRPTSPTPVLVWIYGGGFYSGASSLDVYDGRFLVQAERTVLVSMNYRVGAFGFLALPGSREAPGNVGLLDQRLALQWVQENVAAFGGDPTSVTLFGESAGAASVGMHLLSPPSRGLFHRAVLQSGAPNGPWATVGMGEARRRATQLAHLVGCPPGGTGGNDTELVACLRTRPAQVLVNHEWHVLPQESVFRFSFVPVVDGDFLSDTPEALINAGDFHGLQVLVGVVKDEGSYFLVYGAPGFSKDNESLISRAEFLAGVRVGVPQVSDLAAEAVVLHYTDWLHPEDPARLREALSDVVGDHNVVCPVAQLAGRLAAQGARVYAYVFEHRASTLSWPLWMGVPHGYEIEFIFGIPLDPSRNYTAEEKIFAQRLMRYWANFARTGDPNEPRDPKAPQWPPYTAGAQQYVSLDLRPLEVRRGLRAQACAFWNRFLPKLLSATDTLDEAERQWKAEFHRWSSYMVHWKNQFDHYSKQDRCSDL
# T2 sequence (P05067 672-713): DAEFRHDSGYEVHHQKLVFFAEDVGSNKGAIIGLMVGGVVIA
SMILES,IC50 ([1]; mean ± SEM),ORAC [2],Papp at 100 µM [3],BBB Penetration Estimation CNS (+/−) [3],inhibition at 10 µM [4],Aβ1–42 aggregation inhibition (in words) ([4]; 10 µM compound),IC50 [1]
"COc1cccc(C2c3c(nc4n(c3=O)CCC4)Oc3ccc4ccccc4c32)c1 (centres unmarked) [3Ba, 14-(3′Methoxyphenyl)-10,11-dihydro-14H-benzo[5,6]chromeno[2,3-d]pyrrolo[1,2-a]pyrimidin-13(9H)-one]",1530 ± 25 nM,3.4 ± 0.2 Trolox equivalents,4.6 ± 0.77 ×10⁻⁶ cm/s,CNS (+) (‘CNS (+)’ (high BBB permeability predicted); Pe (10^−6 cm·s^−1) > 4.0),< 10%,,
"O=c1c2c(nc3n1CCCC3)Oc1ccc3ccccc3c1C2c1ccccc1 (centres unmarked) [3Ab, 15-Phenyl-10,11,12,15-tetrahydro-9H-benzo[5,6]chromeno[2,3-d]pyrido[1,2-a]pyrimidin-14-one]",3660 ± 59 nM,2.3 ± 0.3 Trolox equivalents,7.2 ± 0.6 ×10⁻⁶ cm/s,CNS (+) (‘CNS (+)’ (high BBB permeability predicted); Pe (10^−6 cm·s^−1) > 4.0),13.6 ± 2.1%,weak inhibition power,
"Cc1ccc(C2c3c(nc4n(c3=O)CCCC4)Oc3ccc4ccccc4c32)cc1 (centres unmarked) [3Cb, 15-(4′-Methylphenyl)-10,11,12,15-tetrahydro-9H-benzo[5,6]chromeno[2,3-d]pyrido[1,2-a]pyrimidin-14-one]",1590 ± 24 nM,3.9 ± 0.3 Trolox equivalents,,,< 10%,,
"COc1cccc(C2c3c(nc4n(c3=O)CCCC4)Oc3ccc4ccccc4c32)c1 (centres unmarked) [3Bb, 15-(3′-Methoxyphenyl)-10,11,12,15-tetrahydro-9H-benzo[5,6]chromeno[2,3-d]pyrido[1,2-a]pyrimidin-14-one]",1280 ± 32 nM,4.7 Trolox equivalents and 4.7 ± 0.2 Trolox equivalents,3.6 ± 0.57 ×10⁻⁶ cm/s,CNS (+/−) (‘CNS (+/−) (BBB permeability uncertain); Pe (10^−6 cm·s^−1) from 4.0 to 2.0),< 10%,,1280 ± 30 nM
